Assay [1] addresses Nuclear factor NF-kappa-B complex (Homo sapiens, UniProt P19838+Q00653+Q04206). Kind of assay: Inhibition of NF-kappaB (unknown origin). Format: protein-complex assay.
For assay [2], the target named is Beta-2 adrenergic receptor (Homo sapiens, UniProt P07550). As to the kind of experiment: Agonist activity at Adrenergic beta2 receptor (unknown origin). Type of assay: functional.
A short description of assay [3]: Inhibition of 20s proteasome beta1 (unknown origin) mediated […] activity. Further details: species or system Homo sapiens.
Assay [4] can be described thus: Inhibition of 20s proteasome beta2 (unknown origin) mediated […] activity. Further details: species or system Homo sapiens.
The subject of assay [5] is Human immunodeficiency virus 2. As to the kind of experiment: Antiviral activity against HIV-2.
Assay [6] concerns the target Protein smoothened (Homo sapiens, UniProt Q99835). Kind of assay: Antagonist activity at human SMO.
Assay [7] has as its target Protein smoothened (Mus musculus, UniProt P56726). As to the kind of experiment: Antagonist activity at mouse SMO.

Structures can show the parent of a compound that is named as a salt.

As usually defined, the IC50 is the concentration needed to halve the response being measured. A word on the EC50: it is the concentration needed to bring the measured effect to its halfway point. Read a high EC50 as a less potent agent.

Chain of Protein smoothened (Mus musculus, UniProt P56726) (P56726 whole entry): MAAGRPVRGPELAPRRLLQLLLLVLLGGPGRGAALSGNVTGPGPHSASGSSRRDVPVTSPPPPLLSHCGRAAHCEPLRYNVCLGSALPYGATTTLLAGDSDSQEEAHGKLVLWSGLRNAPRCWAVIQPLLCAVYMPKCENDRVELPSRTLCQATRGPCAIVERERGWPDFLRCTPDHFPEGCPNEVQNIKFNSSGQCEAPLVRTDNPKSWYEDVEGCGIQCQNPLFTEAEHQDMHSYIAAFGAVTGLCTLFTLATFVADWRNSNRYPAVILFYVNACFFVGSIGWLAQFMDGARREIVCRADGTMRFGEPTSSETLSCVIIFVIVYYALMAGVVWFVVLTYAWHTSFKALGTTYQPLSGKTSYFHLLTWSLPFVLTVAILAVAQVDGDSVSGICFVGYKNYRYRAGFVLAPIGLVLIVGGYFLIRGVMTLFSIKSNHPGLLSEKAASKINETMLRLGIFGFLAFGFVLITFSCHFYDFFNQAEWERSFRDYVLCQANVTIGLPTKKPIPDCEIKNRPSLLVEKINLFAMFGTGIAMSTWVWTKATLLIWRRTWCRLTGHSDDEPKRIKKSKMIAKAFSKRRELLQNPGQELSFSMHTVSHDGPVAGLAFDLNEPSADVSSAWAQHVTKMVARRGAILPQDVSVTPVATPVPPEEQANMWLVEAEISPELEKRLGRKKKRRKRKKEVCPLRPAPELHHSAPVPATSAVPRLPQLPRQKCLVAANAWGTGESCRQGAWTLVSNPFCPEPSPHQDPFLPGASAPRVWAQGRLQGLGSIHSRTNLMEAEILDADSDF
Chain of Beta-2 adrenergic receptor (P07550 whole entry): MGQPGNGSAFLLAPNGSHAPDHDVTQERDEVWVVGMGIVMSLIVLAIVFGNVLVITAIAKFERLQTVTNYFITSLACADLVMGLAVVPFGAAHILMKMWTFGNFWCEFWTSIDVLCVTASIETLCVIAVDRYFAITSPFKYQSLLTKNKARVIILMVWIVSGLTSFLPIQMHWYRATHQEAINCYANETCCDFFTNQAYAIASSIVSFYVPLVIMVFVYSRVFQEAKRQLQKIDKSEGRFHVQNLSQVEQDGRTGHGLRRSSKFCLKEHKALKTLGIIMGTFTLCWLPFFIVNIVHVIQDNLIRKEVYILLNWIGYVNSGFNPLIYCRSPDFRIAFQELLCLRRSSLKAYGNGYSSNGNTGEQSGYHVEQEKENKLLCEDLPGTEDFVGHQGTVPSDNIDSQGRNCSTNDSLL
Chain of Nuclear factor NF-kappa-B complex (P19838 1-433 limits assumed): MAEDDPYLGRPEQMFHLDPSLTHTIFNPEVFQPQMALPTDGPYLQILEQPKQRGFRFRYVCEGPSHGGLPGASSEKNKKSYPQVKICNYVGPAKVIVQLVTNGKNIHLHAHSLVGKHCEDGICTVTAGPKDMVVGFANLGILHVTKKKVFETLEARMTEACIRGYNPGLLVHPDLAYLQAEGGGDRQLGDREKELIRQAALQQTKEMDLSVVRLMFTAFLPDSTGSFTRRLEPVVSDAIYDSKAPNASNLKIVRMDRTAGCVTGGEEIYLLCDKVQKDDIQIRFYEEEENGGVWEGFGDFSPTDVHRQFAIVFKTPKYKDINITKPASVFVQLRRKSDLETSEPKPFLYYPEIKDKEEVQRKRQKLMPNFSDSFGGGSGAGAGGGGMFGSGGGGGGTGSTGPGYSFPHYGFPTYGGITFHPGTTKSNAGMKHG
Chain of Nuclear factor NF-kappa-B complex (Q00653 1-454 limits assumed): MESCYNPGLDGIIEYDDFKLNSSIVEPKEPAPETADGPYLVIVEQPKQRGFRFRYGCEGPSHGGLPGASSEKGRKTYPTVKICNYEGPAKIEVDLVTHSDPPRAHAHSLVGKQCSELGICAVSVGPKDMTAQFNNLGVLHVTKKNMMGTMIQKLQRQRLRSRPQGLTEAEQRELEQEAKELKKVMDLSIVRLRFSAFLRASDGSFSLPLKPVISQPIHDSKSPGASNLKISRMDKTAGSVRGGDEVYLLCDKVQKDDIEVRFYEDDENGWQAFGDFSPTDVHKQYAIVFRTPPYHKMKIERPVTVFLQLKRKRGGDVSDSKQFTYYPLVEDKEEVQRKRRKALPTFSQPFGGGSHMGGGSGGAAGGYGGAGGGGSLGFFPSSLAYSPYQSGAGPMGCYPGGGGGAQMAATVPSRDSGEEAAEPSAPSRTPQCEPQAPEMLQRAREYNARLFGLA
Chain of Nuclear factor NF-kappa-B complex (Q04206 whole entry): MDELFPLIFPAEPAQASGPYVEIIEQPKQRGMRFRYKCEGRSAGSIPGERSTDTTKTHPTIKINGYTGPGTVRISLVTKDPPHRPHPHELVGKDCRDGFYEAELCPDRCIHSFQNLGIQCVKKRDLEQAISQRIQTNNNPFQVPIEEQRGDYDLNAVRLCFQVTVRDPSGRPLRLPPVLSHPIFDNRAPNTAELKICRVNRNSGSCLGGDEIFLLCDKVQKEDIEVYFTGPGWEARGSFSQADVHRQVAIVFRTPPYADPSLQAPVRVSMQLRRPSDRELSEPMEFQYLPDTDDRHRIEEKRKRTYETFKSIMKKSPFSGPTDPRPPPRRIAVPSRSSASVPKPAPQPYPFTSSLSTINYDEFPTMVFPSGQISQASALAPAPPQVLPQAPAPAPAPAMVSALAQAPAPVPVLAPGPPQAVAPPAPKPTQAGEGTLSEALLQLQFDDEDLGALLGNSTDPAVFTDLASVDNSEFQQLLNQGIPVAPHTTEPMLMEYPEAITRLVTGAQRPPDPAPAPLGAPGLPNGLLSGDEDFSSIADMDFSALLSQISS
Chain of Protein smoothened (Homo sapiens, UniProt Q99835) (Q99835 whole entry): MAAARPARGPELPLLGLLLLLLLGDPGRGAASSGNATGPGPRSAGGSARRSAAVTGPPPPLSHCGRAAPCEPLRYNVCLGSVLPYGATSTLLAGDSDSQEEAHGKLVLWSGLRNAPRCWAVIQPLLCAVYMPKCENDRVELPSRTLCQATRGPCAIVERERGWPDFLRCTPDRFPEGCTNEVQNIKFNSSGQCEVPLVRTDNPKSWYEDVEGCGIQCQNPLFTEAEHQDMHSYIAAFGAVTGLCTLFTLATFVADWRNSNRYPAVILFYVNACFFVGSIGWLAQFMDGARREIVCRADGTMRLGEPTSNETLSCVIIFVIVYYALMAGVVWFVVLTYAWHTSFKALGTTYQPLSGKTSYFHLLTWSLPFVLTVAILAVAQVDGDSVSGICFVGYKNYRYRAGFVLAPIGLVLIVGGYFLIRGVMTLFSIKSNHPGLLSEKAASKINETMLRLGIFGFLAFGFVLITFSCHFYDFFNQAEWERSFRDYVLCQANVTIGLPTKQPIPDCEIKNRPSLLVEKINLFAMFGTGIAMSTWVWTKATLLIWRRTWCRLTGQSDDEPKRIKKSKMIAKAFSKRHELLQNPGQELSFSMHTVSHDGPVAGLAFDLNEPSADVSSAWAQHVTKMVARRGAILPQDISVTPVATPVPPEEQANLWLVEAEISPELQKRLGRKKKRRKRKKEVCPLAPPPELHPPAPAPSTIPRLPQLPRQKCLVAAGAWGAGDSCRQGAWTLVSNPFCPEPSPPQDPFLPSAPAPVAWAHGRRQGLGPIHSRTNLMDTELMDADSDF

Compound `C[C@@H]1C[C@H]2[C@@H]3CCC4=CC(=O)C=C[C@]4(C)[C@@]3(F)[C@@H](O)C[C@]2(C)[C@@]1(O)C(=O)CO` [DEXAMETHASONE] yielded a 50% inhibitory concentration (IC50) in assay [1] of 0.5 nM. This compound registered an EC50 in assay [2] of 2.2 nM.
Consider `CC(C)C[C@H](NC(=O)CNC(=O)c1cc(Cl)ccc1Cl)B1OC(=O)C(CC(=O)O)(CC(=O)O)O1` [IXAZOMIB CITRATE], for which the IC50 worked out at 31 nM in assay [3] and 3.5 µM in assay [4].
For the compound `c1cc(CN2CCCNCCNCCCNCC2)ccc1CN1CCCNCCNCCCNCC1` [PLERIXAFOR], in assay [5], the EC50 was 1 nM.
Consider `Cc1c(C(=O)Nc2ccc(N3C[C@@H](C)O[C@@H](C)C3)nc2)cccc1-c1ccc(OC(F)(F)F)cc1` [SONIDEGIB PHOSPHATE], for which the IC50 against Protein smoothened [6] is 2.5 nM; against Protein smoothened [7], 1.3 nM.

The values are drawn from ChEMBL document CHEMBL5620349, “Recent advance of small-molecule drugs for clinical treatment of multiple myeloma” (Eur J Med Chem, 2023).
